IC50 data for 18 compounds are collected here from patent US8481540B2, “Inhibitors of bruton's tyrosine kinase” (Hoffmann-La Roche Inc., priority 2010, dated 2013).

SMILES strings stand for the structures. Like-named read-outs stand apart in the source and are kept apart here.

This experiment concerns B cells in human blood. As to the kind of experiment: Inhibition of B cell activation in whole blood measured by CD69 expression. It counts as cell-based. The settings on record: read-out: Human Whole Blood. The protocol:
Inhibition of B Cell Activation in Whole Blood Measured by CD69 Expression
A procedure to test the ability of Btk inhibitors to suppress B cell receptor-mediated activation of B cells in human blood is as follows:
Human whole blood (HWB) is obtained from healthy volunteers, with the following restrictions: 24 hr drug-free, non-smokers. Blood is collected by venipuncture into Vacutainer tubes anticoagulated with sodium heparin. Test compounds are diluted to […] the desired starting drug concentration in PBS (20×), followed by three-fold serial dilutions in 10% DMSO in PBS to produce a nine point dose-response curve. 5.5 μl of each compound dilution is added in duplicate to a 2 ml96-well V bottom plate (Analytical Sales and Services, #59623-23); 5.5 μl of 10% DMSO in PBS is added to control and no-stimulus wells. HWB (100 μl) is added to each well, and after mixing the plates are incubated at 37 C, 5% CO2, 100% humidity for 30 minutes. Goat F(ab′)2 anti-human IgM (Southern Biotech, #2022-14) (10 μl of a […] solution, 50 μg/ml final concentration) is added to each well (except the no-stimulus wells) with mixing and the plates are incubated for an additional 20 hours.
At the end of the 20 hour incubation, samples are incubated with florescent-probe-labeled anti-bodies (15 μl PE Mouse anti-Human CD20, BD Pharmingen, #555623, and/or 20 ul APC Mouse anti-Human CD69, BD Pharmingen #555533) for 30 minutes, at 37 C, 5% CO2, 100% humidity. Included are induced control, unstained and single stains for compensation adjustments and initial voltage settings. Samples are then lysed with 1 ml of 1× Pharmingen Lyse Buffer (BD Pharmingen #555899), and plates are centrifuged at 1800 rpm for 5 minutes. Supernatants are removed via suction and the remaining pellets are lysed again with another 1 ml of 1× Pharmingen Lyse Buffer, and plates are spun down as before. Supernatants are aspirated and remaining pellets are washed in FACs buffer (PBS+1% FBS). After a final spin, the supernantants are removed and pellets are resuspended in 180 μl of FACs buffer. Samples are transferred to a 96 well plate suitable to be run on the HTS 96 well system on the BD LSR II flow cytometer.
Using appropriate excitation and emission wavelengths for the fluorophores used, data are acquired and percent positive cell values are obtained using Cell Quest Software. Results are initially analyzed by FACS analysis software (Flow Jo). […] The IC50 values are calculated using XLfit software version 3, equation 201.
Representative compound data for this assay are listed below in Table II.

Setting [1] is: CD69-positive, CD20-positive cells after anti-IgM stimulation, human whole blood, 20 hours.

For the compound `Cn1nc(-c2cccc(-n3ncc4cc(C(C)(C)C)cc(F)c4c3=O)c2CO)cc(Nc2ccc(C3CCN(S(C)(=O)=O)CC3)cn2)c1=O` [I-62, 6-tert-butyl-8-fluoro-2-(2-(hydroxymethyl)-3-(1-methyl-5-(5-(1-(methylsulfonyl)-piperidin-4-yl)pyridin-2-ylamino)-6-oxo-1,6-dihydropyridazin-3-yl)phenyl)phthalazin-1(2H)-one], the IC50 under setting [1] is 144 nM.
Still for that read-out and setting: next, `CC(=O)N1CCC(c2ccc(Nc3cc(-c4cccc(-n5ncc6cc(C(C)(C)C)cc(F)c6c5=O)c4CO)nn(C)c3=O)nc2)CC1` [I-63, 2-(3-(5-(5-(1-acetylpiperidin-4-yl)pyridin-2-ylamino)-1-methyl-6-oxo-1,6-dihydropyridazin-3-yl)-2-(hydroxymethyl)phenyl)-6-tert-butyl-8-fluorophthalazin-1(2H)-one]: 189 nM; `Cn1nc(-c2cccc(-n3ncc4cc(C(C)(C)C)cc(F)c4c3=O)c2CO)cc(Nc2ccc(N3CCC(C)(O)CC3)cn2)c1=O` [I-64, 6-tert-butyl-8-fluoro-2-(3-(5-(5-(4-hydroxy-4-methylpiperidin-1-yl)pyridin-2-ylamino)-1-methyl-6-oxo-1,6-dihydropyridazin-3-yl)-2-(hydroxymethyl)-phenyl)phthalazin-1(2H)-one]: 66 nM; `Cn1nc(-c2cccc(-n3ncc4cc(C(C)(C)C)cc(F)c4c3=O)c2CO)cc(Nc2ccc(N3CCC(O)CC3)cn2)c1=O` [I-65, 6-tert-butyl-8-fluoro-2-(2-(hydroxymethyl)-3-(5-(5-(4-hydroxypiperidin-1-yl)pyridin-2-ylamino)-1-methyl-6-oxo-1,6-dihydropyridazin-3-yl)phenyl)phthalazin-1(2H)-one]: 62 nM.
With `CN1C[C@H]2CC[C@@H](C1)N2c1ccc(Nc2cc(-c3cccc(-n4ncc5cc(C(C)(C)C)cc(F)c5c4=O)c3CO)nn(C)c2=O)nc1` [I-66, 6-tert-Butyl-8-fluoro-2-(2-hydroxymethyl-3-{1-methyl-5-[5-((1R,5S)-3-methyl-3,8-diaza-bicyclo[3.2.1]oct-8-yl)-pyridin-2-ylamino]-6-oxo-1,6-dihydro-pyridazin-3-yl}-phenyl)-2H-phthalazin-1-one], the IC50 under setting [1] is 23 nM.
Turning to `CN1CCC(c2ccc(Nc3cc(-c4cccc(-n5ncc6cc(C(C)(C)C)cc(F)c6c5=O)c4CO)nn(C)c3=O)nc2)CC1` [I-67, 6-tert-Butyl-8-fluoro-2-{2-hydroxymethyl-3-[1-methyl-5-(1′-methyl-1′,2′,3′,4′,5′,6′-hexahydro-[3,4]bipyridinyl-6-ylamino)-6-oxo-1,6-dihydro-pyridazin-3-yl]-phenyl}-2H-phthalazin-1-one], the IC50 (Homo sapiens, 20 h) is 4 nM.
As for `CN1CCC(c2ccc(Nc3cc(-c4cccc(-n5ccc6cc(C(C)(C)C#N)cc(F)c6c5=O)c4CO)nn(C)c3=O)nc2)CC1` [I-71, 2-(8-Fluoro-2-{2-hydroxymethyl-3-[1-methyl-5-(1′-methyl-1′,2′,3′,4′,5′,6′-hexahydro-[3,4′]bipyridinyl-6-ylamino)-6-oxo-1,6-dihydro-pyridazin-3-yl]-phenyl}-1-oxo-1,2-dihydro-isoquinolin-6-yl)-2-methyl-propionitrile], the IC50 under setting [1] is 32 nM.
On to `Cn1nc(Nc2cc(-c3cccc(-n4ccc5cc(C(C)(C)C#N)cc(F)c5c4=O)c3CO)nn(C)c2=O)cc1CN1CCC1` [I-72, 2-(2-{3-[5-(5-Azetidin-1-ylmethyl-1-methyl-1H-pyrazol-3-ylamino)-1-methyl-6-oxo-1,6-dihydro-pyridazin-3-yl]-2-hydroxymethyl-phenyl}-8-fluoro-1-oxo-1,2-dihydro-isoquinolin-6-yl)-2-methyl-propionitrile], for which, under setting [1], the IC50 amounted to 56 nM.
In the case of `Cn1nc(-c2cccc(-n3ccc4cc(C(C)(C)C#N)cc(F)c4c3=O)c2CO)cc(Nc2ccc(OC(C)(C)CN3CCC3)cn2)c1=O` [I-73, 2-[2-(3-{5-[5-(2-Azetidin-1-yl-1,1-dimethyl-ethoxy)-pyridin-2-ylamino]-1-methyl-6-oxo-1,6-dihydro-pyridazin-3-yl}-2-hydroxymethyl-phenyl)-8-fluoro-1-oxo-1,2-dihydro-isoquinolin-6-yl]-2-methyl-propionitrile], the IC50 under setting [1] was found to be 30 nM.
Regarding `CN1CCn2nc(Nc3cc(-c4cccc(-n5ccc6cc(C(C)(C)C#N)cc(F)c6c5=O)c4CO)nn(C)c3=O)cc2C1` [I-74, 2-(8-Fluoro-2-{2-hydroxymethyl-3-[1-methyl-5-(5-methyl-4,5,6,7-tetrahydro-pyrazolo[1,5-a]pyrazin-2-ylamino)-6-oxo-1,6-dihydro-pyridazin-3-yl]-phenyl}-1-oxo-1,2-dihydro-isoquinolin-6-yl)-2-methyl-propionitrile], the IC50 under setting [1] amounted to 34 nM.
As for `CN(C)C(=O)c1ccc(Nc2cc(-c3cccc(-n4ccc5cc(C(C)(C)C#N)cc(F)c5c4=O)c3CO)nn(C)c2=O)nc1` [I-75, 6-(6-{3-[6-(Cyano-dimethyl-methyl)-8-fluoro-1-oxo-1H-isoquinolin-2-yl]-2-hydroxymethyl-phenyl}-2-methyl-3-oxo-2,3-dihydro-pyridazin-4-ylamino)-N,N-dimethyl-nicotinamide], the IC50 under setting [1] is 180 nM.
For the compound `CN1CCC[C@H]1c1ccc(Nc2cc(-c3cccc(-n4ccc5cc(C(C)(C)C#N)cc(F)c5c4=O)c3CO)nn(C)c2=O)nc1` [I-76, 2-[8-Fluoro-2-(2-hydroxymethyl-3-{1-methyl-5-[5-((S)-1-methyl-pyrrolidin-2-yl)-pyridin-2-ylamino]-6-oxo-1,6-dihydro-pyridazin-3-yl}-phenyl)-1-oxo-1,2-dihydro-isoquinolin-6-yl]-2-methyl-propionitrile], under setting [1], the IC50 worked out at 51 nM.
The same measure, in the same setting: next, `CN1CC[C@@H](c2ccc(Nc3cc(-c4cccc(-n5ccc6cc(C(C)(C)C#N)cc(F)c6c5=O)c4CO)nn(C)c3=O)nc2)C1` [I-77, 2-[8-Fluoro-2-(2-hydroxymethyl-3-{1-methyl-5-[5-((S)-1-methyl-pyrrolidin-3-yl)-pyridin-2-ylamino]-6-oxo-1,6-dihydro-pyridazin-3-yl}-phenyl)-1-oxo-1,2-dihydro-isoquinolin-6-yl]-2-methyl-propionitrile]: 123 nM; `Cn1nc(-c2cccc(N3CCc4cc(C(C)(C)C#N)cc(F)c4C3=O)c2CO)cc(Nc2ccc(OC(C)(C)CN3CCC3)cn2)c1=O` [I-78, 2-[2-(3-{5-[5-(2-azetidin-1-yl-1,1-dimethyl-ethoxy)-pyridin-2-ylamino]-1-methyl-6-oxo-1,6-dihydro-pyridazin-3-yl}-2-hydroxymethyl-phenyl)-8-fluoro-1-oxo-1,2,3,4-tetrahydro-isoquinolin-6-yl]-2-methyl-propionitrile]: 84 nM.
Consider `Cn1nc(-c2cccc(-n3ccc4cc(C(C)(C)C#N)cc(F)c4c3=O)c2CO)cc(Nc2cc3n(n2)CCN(C2COC2)C3)c1=O` [I-79, 2-(8-Fluoro-2-{2-hydroxymethyl-3-[1-methyl-5-(5-oxetan-3-yl-4,5,6,7-tetrahydro-pyrazolo[1,5-a]pyrazin-2-ylamino)-6-oxo-1,6-dihydro-pyridazin-3-yl]-phenyl}-1-oxo-1,2-dihydro-isoquinolin-6-yl)-2-methyl-propionitrile], for which the IC50 under setting [1] is 60 nM.
Take `Cn1nc(-c2cccc(-n3ncc4cc(C(C)(C)C)cc(F)c4c3=O)c2CO)cc(Nc2ccc(C3CCN(C4COC4)CC3)cn2)c1=O` [I-80, 6-tert-Butyl-8-fluoro-2-{2-hydroxymethyl-3-[1-methyl-5-(1′-oxetan-3-yl-1′,2′,3′,4′,5′,6′-hexahydro-[3,4]bipyridinyl-6-ylamino)-6-oxo-1,6-dihydro-pyridazin-3-yl]-phenyl}-2H-phthalazin-1-one]: the IC50 under setting [1] came out at 41 nM.
`CCN1CCn2nc(Nc3cc(-c4cccc(-n5ncc6cc(C(C)(C)C)cc(F)c6c5=O)c4CO)nn(C)c3=O)cc2C1` [I-82, 6-tert-Butyl-2-{3-[5-(5-ethyl-4,5,6,7-tetrahydro-pyrazolo[1,5-a]pyrazin-2-ylamino)-1-methyl-6-oxo-1,6-dihydro-pyridazin-3-yl]-2-hydroxymethyl-phenyl}-8-fluoro-2H-phthalazin-1-one]: the IC50 under setting [1] worked out at 17 nM.
Turning to `CCN1CCn2nc(Nc3cc(-c4cccc(-n5ccc6cc(C(C)(C)C#N)cc(F)c6c5=O)c4CO)nn(C)c3=O)cc2C1` [I-83, 2-(2-{3-[5-(5-Ethyl-4,5,6,7-tetrahydro-pyrazolo[1,5-a]pyrazin-2-ylamino)-1-methyl-6-oxo-1,6-dihydro-pyridazin-3-yl]-2-hydroxymethyl-phenyl}-8-fluoro-1-oxo-1,2-dihydro-isoquinolin-6-yl)-2-methyl-propionitrile], under setting [1], the IC50 was determined as 70 nM.
